Assay results taken from patent US7517949B2, “Livin-derived peptides, compositions and uses thereof” (Hadasit Medical Research Services & Development Ltd., priority 2003, dated 2009).

Key:
Type in all cases: cell-based, human
[1] = system: LB33 Mel B1 cells; assay: Etoposide-induced apoptosis, nuclear morphology, LB33 Mel B1; settings: Mel B1, high levels of Livin; etoposide 15 μg/ml
Procedure: (§1) (b) Melanoma cell lines LB33 Mel A1 and B1 were treated with etoposide (15 μg/ml). Apoptosis rate was determined by nuclear morphology, as described.
(§2) Nuclear morphology was visualized using acridin orange (Sigma) staining as described [Loo, D. T. et al. (1998) Methods Cell Biol., 57: 251-264]. […] The percentage of apoptotic to viable cells was counted by fluorescence microscopy and 500 cells were scored for each sample. Flow cytometry analysis of the apoptotic cells was done using two different methods. In the Sub-G1 assay the cells were harvested, washed with PBS and fixed using 100% methanol. […] Cells transfected with a GFP-containing plasmid were analyzed using Annexin-V-Cy5 and PI staining according to the manufacturer instructions (MBL, Japan). In stably transfected cultures with a rate of GFP-positive cells higher than 95%, all cells were analyzed for apoptosis. In transiently transfected cells, GFP expression was first analyzed (FL-1), and only GFP-positive cells were analyzed for Annexin-V-Cy5 (FL-4) and PI (FL-3) staining.
(§3) LB33 A1 and B1 are two metastatic melanoma cell lines derived from the same patient before and after vaccination with autologous melanoma cells [Ikeda, H. et al. (1997) Immunity 6: 199-208; Lehmann, F. et al. (1995) Eur. J. Immunol. […] PARP was detected in all samples, confirming similar protein content.

[2] = system: LB33 Mel A1 cells; assay: Etoposide-induced apoptosis, nuclear morphology, LB33 Mel A1; settings: Mel A1, no Livin expression; etoposide 15 μg/ml
Procedure: as §1, §2, §3

[3] = system: primary melanoma cells; assay: Etoposide-induced apoptosis in primary melanoma cultures (nuclear morphology); settings: etoposide 15 μg/ml, 24 and 48 hours
Procedure: FIG. 8b: Six samples were selected according to the level of Livin expression (high: 5556, 55112, moderate: 5524, 55164, or undetectable: 5530, 5533). […] Apoptosis rate was determined by nuclear morphology, as described. The data shown are representative of three independent experiments, which were also confirmed by flow cytometry, using sub-G1 assay.
Primary melanoma cells were derived and maintained as described [Lotem, M. et al. (2002) Br J Cancer, 86: 1534-1539].
Nuclear morphology was visualized using acridin orange (Sigma) staining as described [Loo, D. T. et al. (1998) Methods Cell Biol., 57: 251-264]. […] The percentage of apoptotic to viable cells was counted by fluorescence microscopy and 500 cells were scored for each sample. Flow cytometry analysis of the apoptotic cells was done using two different methods. In the Sub-G1 assay the cells were harvested, washed with PBS and fixed using 100% methanol. Following an overnight incubation at −20° C., cells were re-hydrated with PBS for 30 minutes on ice, and then resuspended in PBS with RNase A (50 μg/ml) and stained with Propidium Iodide (PI) (Sigma) at a final concentration of 5 μg/ml. Flow cytometry analysis was performed in FL2 histogram. Cells transfected with a GFP-containing plasmid were analyzed using Annexin-V-Cy5 and PI staining according to the manufacturer instructions (MBL, Japan). In stably transfected cultures with a rate of GFP-positive cells higher than 95%, all cells were analyzed for apoptosis. In transiently transfected cells, GFP expression was first analyzed (FL-1), and only GFP-positive cells were analyzed for Annexin-V-Cy5 (FL-4) and PI (FL-3) staining.
In order to determine whether Livin expression renders the melanoma cells resistant to chemotherapy, six melanoma samples were selected, according to their Livin expression. […] After 24 and 48 hours, cells were harvested and the percent of apoptosis determined in each sample by nuclear morphology (FIG. 8b). […]

COc1cc([C@@H]2c3cc4c(cc3[C@@H](O[C@@H]3O[C@@H]5CO[C@@H](C)O[C@H]5[C@H](O)[C@H]3O)[C@H]3COC(=O)[C@H]23)OCO4)cc(OC)c1O [etoposide]
response to etoposide (apoptosis by nuclear morphology) [1]: completely resistant
response to etoposide (apoptosis by nuclear morphology) [2]: rapidly underwent apoptosis
moderate resistance (percent of apoptosis) ([3]; samples 5524 and 55164, intermediate Livin): 15-25%
apoptosis rate ([3]; samples 5533 and 5530, no Livin expression): up to 55%
resistance to etoposide ([3]; samples 5556 and 55112, high Livin expression): completely resistant
